Data: patent US20030228357A1, “Dry granulated formulations of azithromycin” (Pfizer Inc., priority 2002, published 2003)

What was measured:
Type in all cases: physicochemical
[1] = Indices of tableting performance (Hiestand) of bulk azithromycin; settings: forms N, M, G, A milled, F and J unmilled
Procedure: Indices of tableting performance, for several azithromycin forms, were assessed to identify any mechanical deficiencies or attributes that may affect tablet formulation for these azithromycin forms. This assessment was performed in accordance with the procedures described in “Indices of Tableting, Performance” […] and D. P. Smith, Powder Technology 38 [1984] pp. 145-159. Specifically, the Brittle Fracture Index, BFI, was calculated from the ratio of a material's regular tensile strength to its compromised tensile strength. Strain Index, SI, was determined from the dynamic indentation hardness test. Worst Case Bonding Index was determined by assessing the extent of particle bonding remaining after decompression assuming a very short compression dwell time and a plastic mechanism of particle separation during decompression. Tableting Indices were determined for bulk azithromycin lots of six different crystalline forms, specifically forms N, M, G, A, F and J. Forms N, M and G were milled with a Fitzmill (Model JT, The Fitzpatrick Co., Elmhurst, Ill.) using a 0.027'' screen and knives at high speed in an attempt to match the smaller particle size of milled Form A. Unmilled forms F and J were evaluated “as is” due to their relatively small particle sizes.

[2] = Density and Carr's Compressibility Index (flowability) of dry blends and dry granulations
From the text: Carr's Compressibility Index was used to evaluate the flowability of the four dry granulations. Carr's Compressibility Index is a simple test to evaluate flowability by comparing both the initial and final (tapped) bulk volumes and the rate of packing down. A useful empirical guide to flow is given by Carr's compressibility index: Compressibility Index(%)=[(tapped density−initial density)/tapped density]×100 […] The procedure is described in Int. J. Pharm. Tech. & Prod. Mfr., 6(3) 10-16, 1985.

[3] = Slug (compact) hardness, Schleuniger hardness tablet tester
From the text: A compaction simulator was used to compress the blends. The compaction simulator was designed as a single station tablet press in which the compression dwell time can be adjusted to simulate different types of tablet presses. All the formulations were slugged on the compaction simulator configured as the Kilian RX-67 press with a dwell time of 0.3145 seconds using […] round flat face tooling. The slugs were then comminuted using a Fitz mill with a 0.125″ screen with knives forward and run at slow speed. […] The slugs were tested for hardness (kP scale), using a Schleuniger hardness tablet tester (Dr. Schleuniger Pharmatron AG, Solothurn, Switzerland).

[4] = Tablet hardness, Schleuniger hardness tablet tester; settings: for Avg Tablet Hardness: Table 4C, low drug loading, diluent MCC
Procedure: (§1) All four formulations were compressed on the compaction simulator using either 0.344″×0.688″ oval tooling, or ½″ standard round concave (SRC) tooling. The tablets were tested for hardness (kP scale), using a Schleuniger hardness tablet tester (Dr. Schleuniger Pharmatron AG, Solothurn, Switzerland), and for friability (100 rotations/4 minutes) using a Vanderkamp Friabulator Tablet Tester (Vankel, Cary, N.C., US).

[5] = Tablet friability, Vanderkamp Friabulator (100 rotations/4 minutes)
Procedure: Friability is a standard test known to one skilled in the art. Friability is measured under standardized conditions by weighing out a certain number of tablets (generally 20 tablets or less), placing them in a rotating Plexiglas drum in which they are lifted during replicate revolutions by a radial lever, and then dropped approximately 8 inches. After replicate revolutions (typically 100 revolutions at 25 rpm), the tablets are reweighed and the percentage of formulation abraded or chipped is calculated. The friability of the tablets, of the present invention, is preferably in the range of about 0% to 3%, and values about 1%, or less, are considered acceptable for most drug and food tablet contexts. Friability which approaches 0% is particularly preferred.
as §1

[6] = Tablet hardness, Schleuniger hardness tablet tester; settings: for Avg Tab Hardness: Short blend
[7] = Tablet friability, Vanderkamp Friabulator (100 rotations/4 minutes); remark: listed apart in the source
[8] = 35.2 wt % azithromycin, dicalcium phosphate anhydrous diluent, Short blend method
[9] = 35.2 wt % azithromycin, dicalcium phosphate anhydrous diluent, Short blend method, slugged
[10] = Table 3A, low drug loading: 35.2 wt % azithromycin, 54.8 wt % dicalcium phosphate anhydrous, long blend
[11] = Table 4A, low drug loading (35.2 wt % azithromycin), diluent Lactose
[12] = Table 4B, high drug loading (58.2 wt % azithromycin), diluent Lactose
[13] = Table 5A, 58.2 wt % azithromycin, dicalcium phosphate dihydrate, disintegrant Explotab
[14] = Table 5A, 58.2 wt % azithromycin, dicalcium phosphate dihydrate, disintegrant PVP-XL
[15] = Table 7A, 55.76 wt % azithromycin, lactose anhydrous, corn starch, roller compaction 850 psi
[16] = Table 4D, high drug loading, diluent Lactose, modified capsule shape
[17] = Table 5B, Explotab, 500 mgA, Oval, Precompression 3.5 kN
[18] = Table 5B, Explotab, 500 mgA, Oval, Precompression No
[19] = Table 5B, PVP-XL, 250 mgA, Modified Capsule, Precompression No
[20] = Table 5B, PVP-XL, 600 mgA, Modified Oval, Precompression No
[21] = Table 3D, high drug loading (58.2 wt % azithromycin), DCP anhydrous, modified capsule shape tablets, target weight 450 mg
[22] = Table 5B, Explotab, 250 mgA, Modified Capsule, Precompression No
[23] = Table 5B, PVP-XL, 600 mgA, Modified Oval, Precompression 1.5 kN
[24] = Table 4A, low drug loading (35.2 wt % azithromycin), diluent MCC
[25] = Table 4B, high drug loading (58.2 wt % azithromycin), diluent MCC
[26] = Table 7A, 55.76 wt % azithromycin, lactose anhydrous, corn starch, roller compaction 850 psi, sesquihydrate
[27] = Table 4D, high drug loading, diluent MCC, modified capsule shape
[28] = Table 4C, low drug loading, diluent Lactose, Oval tooling
[29] = Table 4C, low drug loading, diluent Lactose, SRC (½″) tooling

For `CCC1OC(=O)C(C)C(O[C@H]2C[C@@](C)(OC)[C@@H](O)C(C)O2)C(C)[C@@H](OC2OC(C)CC(N(C)C)[C@H]2O)[C@@](C)(O)C[C@@H](C)CN(C)[C@H](C)[C@@H](O)[C@]1(C)O` (stereo partly shown) [Form M, azithromycin monohydrate hemi-isopropanol solvate], the “Brittle Fracture Index (BFI)” value [1] was 0.10, the “Strain Index (SI)” value [1] was 0.0048 and the “Tensile Strength” value [1] was 0.79 Mpa. The “Worst Case Bonding Index (BIw) × 10^2” value [1] was 1.0, the “Dry Blend Carr's Index” value [2, 8] was 36% and the “Dry Blend density As Is” value [2, 8] was 0.68 g/cc. For the same compound, the “Dry Blend density Tapped” value [2, 8] was 1.08 g/cc, the “Granulation Carr's Index” value [2, 9] was 28% and the “Granulation Density As Is” value [2, 9] was 0.82 g/cc. For the same compound, the “Granulation Density Tapped” value [2, 9] was 1.14 g/cc, the “Granulation Carr's Index” value [2, 10] was 28% and the “Granulation Density As Is” value [2, 10] was 0.82 g/cc. The “Granulation Density Tapped” value [2, 10] was 1.14 g/cc, the “Dry Granulation Carr's Index” value [2, 11] was 30% and the “Dry Granulation Density As Is” value [2, 11] was 0.55 g/cc. The “Dry Granulation Density Tapped” value [2, 11] was 0.78 g/cc, the “Dry Granulation Carr's Index” value [2, 12] was 29% and the “Dry Granulation Density As Is” value [2, 12] was 0.53 g/cc. For the same compound, the “Dry Granulation Density Tapped” value [2, 12] was 0.75 g/cc, the “Dry Granulation Carr's Index” value [2, 13] was 26% and the “Dry Granulation Density As Is” value [2, 13] was 0.67 g/cc. For the same compound, the “Dry Granulation Density Tapped” value [2, 13] was 0.91 g/cc, the “Dry Granulation Carr's Index” value [2, 14] was 25% and the “Dry Granulation Density As Is” value [2, 14] was 0.63 g/cc. For the same compound, the “Dry Granulation Density Tapped” value [2, 14] was 0.84 g/cc, the “Dry Granulation Carr's Index” value [2, 15] was 24% and the “Dry Granulation Density As Is” value [2, 15] was 0.62 g/cc. For the same compound, the “Dry Granulation Density Tapped” value [2, 15] was 0.82 g/cc, the “Avg Slug Hardness” value [3, 8] was 10.9 kP and the “Avg Slug Hardness” value [3, 10] was 11 kP. The “Avg Slug Hardness” value [3, 11] was 13 kP, the “Avg Slug Hardness” value [3, 12] was 11 kP and the “Avg Slug Hardness” value [3, 13] was 12 kP. For the same compound, the “Avg Slug Hardness” value [3, 14] was 13 kP, the “Avg Hardness” value ([4]; Table 3C, low drug loading (35.2 wt % azithromycin), DCP anhydrous, oval tablets, target weight 750 mg) was 8.4 kP and the Friability ([5]; Table 2B Run 6, Short blend, Oval tooling, compression force 19.4 kN) was “capped”. The Friability ([5]; Table 2B Run 7, Short blend, Oval tooling, compression force 14 kN) was “capped”, the Friability [5, 16] was 0.28% and the Friability [5, 17] was 0.50%. For the same compound, the Friability [5, 18] was 2.71%, the Friability [5, 19] was 0.25% and the Friability [5, 20] was 6.34%. For the same compound, the “Avg Tab Hardness” value ([6]; Table 2B Run 6, Oval tooling, compression force 19.4 kN) was 8.4 kP, the “Avg Tab Hardness” value ([6]; Table 2B Run 7, Oval tooling, compression force 14 kN) was 5.1 kP and the “Avg Hardness” value [6, 21] was 6.1 kP. The “Avg Tablet Hardness” value [6, 16] was 5.8 kP, the “Avg Hardness” value [6, 22] was 4.5 kP and the “Avg Hardness” value [6, 17] was 7.4 kP. For the same compound, the “Avg Hardness” value [6, 18] was 5.6 kP, the “Avg Hardness” value [6, 19] was 4.9 kP and the “Avg Hardness” value [6, 23] was 9.2 kP. For the same compound, the “Avg Hardness” value [6, 20] was 4.2 kP, the Friability [7, 21] was 0.45% and the Friability [7, 22] was 0.33%. It also gave a Friability [7, 23] of 0.34%.
With `CC[C@H]1OC(=O)[C@H](C)[C@@H](O[C@H]2C[C@@](C)(OC)[C@@H](O)[C@H](C)O2)[C@H](C)[C@@H](O[C@@H]2O[C@H](C)C[C@H](N(C)C)[C@H]2O)[C@](C)(O)C[C@@H](C)CN(C)[C@H](C)[C@@H](O)[C@]1(C)O` [Form G, azithromycin sesquihydrate] the “Strain Index (SI)” value ([1]; sesquihydrate) was 0.0043, the “Tensile Strength” value ([1]; sesquihydrate) was 1.03 Mpa and the “Worst Case Bonding Index (BIw) × 10^2” value ([1]; sesquihydrate) was 0.8. The “Dry Granulation Carr's Index” value [2, 24] was 25%, the “Dry Granulation Density As Is” value [2, 24] was 0.51 g/cc and the “Dry Granulation Density Tapped” value [2, 24] was 0.68 g/cc. For the same compound, the “Dry Granulation Carr's Index” value [2, 25] was 25%, the “Dry Granulation Density As Is” value [2, 25] was 0.53 g/cc and the “Dry Granulation Density Tapped” value [2, 25] was 0.71 g/cc. The “Dry Granulation Density Tapped” value [2, 15] was 0.86 g/cc, the “Dry Granulation Carr's Index” value [2, 26] was 22% and the “Dry Granulation Density As Is” value [2, 26] was 0.67 g/cc. The “Avg Slug Hardness” value [3, 24] was 13 kP, the “Avg Slug Hardness” value [3, 25] was 9 kP and the “Avg Tablet Hardness” value ([4]; Oval tooling) was 6.1 kP. For the same compound, the “Avg Tablet Hardness” value ([4]; SRC (½″) tooling) was 5.3 kP, the Friability ([5]; Table 4C, low drug loading, diluent MCC, Oval tooling) was 1.30% and the Friability ([5]; Table 4C, low drug loading, diluent MCC, SRC (½″) tooling) was 0.78%. For the same compound, the Friability [5, 27] was 0.41% and the “Avg Tablet Hardness” value [6, 27] was 5.8 kP.
With `CCC1OC(=O)C(C)C(O[C@H]2C[C@@](C)(OC)[C@@H](O)C(C)O2)C(C)[C@@H](OC2OC(C)CC(N(C)C)[C@H]2O)[C@@](C)(O)C[C@@H](C)CN(C)[C@H](C)[C@@H](O)[C@]1(C)O` (stereo partly shown) [Form H, azithromycin monohydrate hemi-1,2 propanediol solvate] the Friability [5, 28] was “Broken”, the Friability [5, 29] was 0.53% and the “Avg Tablet Hardness” value [6, 28] was 7.0 kP. The “Avg Tablet Hardness” value [6, 29] was 7.5 kP.
